Source: patent publication US20230091047A1 (priority 2019, published 2023)
Where two headings read alike, the source gives them in different places.

Columns and labels:
[1] = tested on: HBV (HepG2.117 cell line, inducibly HBV producing); assay: Anti-HBV activity: intracellular HBV DNA by real-time PCR in HepG2.117 cells after 3 days of treatment; type: cell-based, hepatitis B virus
Outline: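 Inducible HBV-producing HepG2.117 line (Tet-off); 3-day exposure to serially diluted compound after induction; real-time PCR of intracellular viral DNA.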

in vitro = type: cell-based; conditions: human, HepG2 or HepG2.117 cells, ATPlite, mean value
Outline: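 Luminescent ATP quantitation served as the viability endpoint following a 3- or 4-day incubation with test compounds.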

[2] = Hepatitis B virus, HepG2.117, 72 h, HepG2.117 cells, 3 days of treatment, intracellular HBV DNA by real-time PCR; mean value; read-out: EC50 (μM, mean value)
[3] = 3-days incubation (unmarked values)
[4] = Hepatitis B virus, HepG2.117, 72 h, HepG2.117 cells, intracellular HBV DNA by real-time PCR, 3 days of treatment, mean value; read-out: EC50 (μM, mean value)
[5] = 3-days incubation (not marked with *)

SMILES	EC50 [1, 2] [µM]	CC50 at 3 days (in vitro; [3]) [µM]	EC50 [1, 4] [µM]	CC50 at 3 days (in vitro; [5]) [µM]
CC(C)Nc1nc2c(c(=O)n1-c1ccc(Cl)nc1)C[C@@H](C)N(C(=O)c1ccc(Cl)c(Cl)c1)C2 [Compound C228, (6R)-3-(6-chloropyridin-3-yl)-7-(3,4-dichlorobenzoyl)-6-methyl-2-[(propan-2-yl)amino]-5,6,7,8-tetrahydropyrido[3,4-d]pyrimidin-4(3H)-one]	0.27	> 50	–	–
Cc1nc(-c2ccc(-n3c(NC(C)C)nc4c(c3=O)C[C@@H](C)N(C(=O)c3ccc(Cl)c(Cl)c3)C4)cc2)c[nH]1 [Compound C244, (6R)-7-(3,4-dichlorobenzoyl)-6-methyl-3-[4-(2-methyl-1H-imidazol-4-yl)phenyl]-2-[(propan-2-yl)amino]-5,6,7,8-tetrahydropyrido[3,4-d]pyrimidin-4(3H)-one]	0.12	22.9	–	–
CC(C)Nc1nc2c(c(=O)n1-c1ccc(C(=O)O)cc1)C[C@@H](C)N(C(=O)c1ccc(Cl)c(Cl)c1)C2 [Compound I70, (R)-4-(7-(3,4-dichlorobenzoyl)-2-(isopropylamino)-6-methyl-4-oxo-5,6,7,8-tetrahydropyrido[3,4-d]pyrimidin-3(4H)-yl)benzoic acid]	–	–	3.6	> 50
CNC(=O)c1ccc(-n2c(N[C@H](C)c3ccc(C(F)(F)F)c(F)c3)nc3c(c2=O)C[C@@H](C)N(C(=O)c2ccc(Cl)c(Cl)c2)C3)cc1 (single isomer, unassigned) [Compound C659a]	–	–	0.12	6.8
CNC(=O)c1ccc(-n2c(NC(C)C)nc3c(c2=O)C[C@@H](C)N(C(=O)c2ccc(Br)c(C)c2F)C3)cc1 [Compound C584]	–	–	0.1	> 50
CNC(=O)c1ncc(-n2c(O)nc3c(c2=O)C[C@@H](C)N(C(=O)c2ccc(Cl)c(Cl)c2)C3)n1C [Compound C626, R-5-(7-(3,4-dichlorobenzoyl)-2-hydroxy-6-methyl-4-oxo-5,6,7,8-tetrahydropyrido[3,4-d]pyrimidin-3(4H)-yl)-N,1-dimethyl-1H-imidazole-2-carboxamide]	–	–	> 2.5	> 50
CNC(=O)c1ccc(-n2c(NC(C)c3nccs3)nc3c(c2=O)C[C@@H](C)N(C(=O)c2ccc(Cl)c(Cl)c2)C3)cc1 (stereo partly drawn) [Compound C434]	–	–	0.57	> 50
CNC(=O)c1ccc(-n2c(N3CCC[C@H]3C3CC3)nc3c(c2=O)C[C@@H](C)N(C(=O)c2ccc(Cl)c(Cl)c2)C3)cc1 (single isomer, unassigned) [Compound C353, 4-[(6R)-2-[(2*S)-2-cyclopropylpyrrolidin-1-yl]-7-(3,4-dichlorobenzoyl)-6-methyl-4-oxo-5,6,7,8-tetrahydropyrido[3,4-d]pyrimidin-3(4H)-yl]-N-methylbenzamide]	0.11	19.5	–	–
CNC(=O)c1ccc(-n2c(N(C)Cc3cn(C)nn3)nc3c(c2=O)C[C@@H](C)N(C(=O)c2ccc(Cl)c(Cl)c2)C3)cc1 [Compound C479]	–	–	3.81	> 50
CC(C)Nc1nc2c(c(=O)n1[C@H]1CC[C@@H](S(C)(=O)=O)CC1)C[C@@H](C)N(C(=O)c1ccc(Cl)c(Cl)c1)C2 [Compound C262, (6R)-7-(3,4-dichlorobenzoyl)-3-[cis-4-(methanesulfonyl)cyclohexyl]-6-methyl-2-[(propan-2-yl)amino]-5,6,7,8-tetrahydropyrido[3,4-d]pyrimidin-4(3H)-one]	0.11	22.5	–	–
CNC(=O)c1ccc(-n2c(NC(C)C)nc3c(c2=O)C[C@@H](C)N(C(=O)c2cc4ccc(OC)cc4s2)C3)cc1 [Compound C524]	–	–	1.36	> 50
CNC(=O)c1cc(-n2c(N[C@@H](C)c3ccc(F)cc3)nc3c(c2=O)C[C@@H](C)N(C(=O)c2ccc(Cl)c(C(F)(F)F)c2)C3)n(C)n1 [Compound C658]	–	–	0.07	32.2
CC(C)Nc1nc2c(c(=O)n1-c1ccc(-c3nccs3)cc1)CCN(C(=O)c1ccc(Cl)c(Cl)c1)C2 [Compound C238, 7-(3,4-dichlorobenzoyl)-2-[(propan-2-yl)amino]-3-[4-(1,3-thiazol-2-yl)phenyl]-5,6,7,8-tetrahydropyrido[3,4-d]pyrimidin-4(3H)-one]	0.56	> 50	–	–
CNC(=O)c1ncc(-n2c(N[C@@H](C)c3ccc(OC(F)(F)F)cc3)nc3c(c2=O)C[C@@H](C)N(C(=O)c2ccc(Cl)c(Cl)c2)C3)n1C [Compound C620]	–	–	0.17	> 50
CNC(=O)c1ccc(-n2c(N[C@H](C)c3ccc4c(c3)OCO4)nc3c(c2=O)C[C@@H](C)N(C(=O)c2ccc(Cl)c(Cl)c2)C3)cc1 (single isomer, unassigned) [Compound C414a]	–	–	0.29	> 50
CNC(=O)c1ccc(-n2c(N[C@@H](C)c3ccc(F)cc3)nc3c(c2=O)C[C@@H](C)N(C(=O)c2ccc(Cl)c(Cl)c2)C3)cc1 [Compound C380]	–	–	0.1	15.7
CC(C)Nc1nc2c(c(=O)n1-c1ccc(S(C)(=O)=O)cc1)[C@H](C)CN(C(=O)c1ccc(Cl)c(Cl)c1)C2 (single isomer, unassigned) [Compound C154B, (*S)-7-(3,4-dichlorobenzoyl)-2-(isopropylamino)-5-methyl-3-(4-(methylsulfonyl)-phenyl)-5,6,7,8-tetrahydropyrido[3,4-d]pyrimidin-4(3H)-one]	0.51	> 50	–	–
COc1ccc(CNc2nc3c(c(=O)n2-c2ccc(C(=O)O)cc2)CCN(C(=O)c2ccc(Cl)c(Cl)c2)C3)cc1 [Compound C124, 4-[7-(3,4-dichlorobenzoyl)-2-{[(4-methoxyphenyl)methyl]amino}-4-oxo-5,6,7,8-tetrahydropyrido[3,4-d]pyrimidin-3(4H)-yl]benzoic acid]	36.8	> 50	–	–
CNC(=O)c1ccc(-n2c(N[C@H](C)c3ccc4[nH]cnc4c3)nc3c(c2=O)C[C@@H](C)N(C(=O)c2ccc(Cl)c(Cl)c2)C3)cc1 (single isomer, unassigned) [Compound C647a]	–	–	> 2.5	> 50
COc1ccc(CNc2nc3c(c(=O)[nH]2)CCN(C(=O)c2ccc(Br)c(C#N)c2)C3)cc1 [Compound C105, 2-bromo-5-[2-{[(4-methoxyphenyl)methyl]amino}-4-oxo-4,5,6,8-tetrahydropyrido[3,4-d]pyrimidine-7(3H)-carbonyl]benzonitrile]	6.81	> 50	–	–
CNC(=O)c1ccc(-n2c(NC(C)C)nc3c(c2=O)C[C@@H](C)N(C(=O)c2cc(Cl)c(Cl)cn2)C3)cc1 [Compound C674]	–	–	2.04	> 50
CC(C)Nc1nc2c(c(=O)n1-c1ccc(N3CCCC3CO)cc1)C[C@@H](C)N(C(=O)c1ccc(Cl)c(Cl)c1)C2 (stereo partly drawn) [Compound C215, (6R)-7-(3,4-dichlorobenzoyl)-3-{4-[2-(hydroxymethyl)pyrrolidin-1-yl]phenyl}-6-methyl-2-[(propan-2-yl)amino]-5,6,7,8-tetrahydropyrido[3,4-d]pyrimidin-4(3H)-one]	0.21	31.9	–	–
CNC(=O)c1ccc(-n2c(N[C@@H](C)C3CCC3)nc3c(c2=O)C[C@@H](C)N(C(=O)c2ccc(Cl)c(Cl)c2)C3)cc1 (single isomer, unassigned) [Compound C406b]	–	–	0.16	24.5
CNC(=O)c1ccc(-n2c(NC(C)c3ccc(S(C)(=O)=O)cc3)nc3c(c2=O)C[C@@H](C)N(C(=O)c2ccc(Cl)c(Cl)c2)C3)cc1 (stereo partly drawn) [Compound C412]	–	–	1.6	> 50
COc1ccccc1-n1c(N[C@H](C)c2ccccc2)nc2c(c1=O)CCN(C(=O)c1ccc(Cl)c(Cl)c1)C2 [Compound C44, 7-(3,4-dichlorobenzoyl)-3-(2-methoxyphenyl)-2-{[(1R)-1-phenylethyl]amino}-5,6,7,8-tetrahydropyrido[3,4-d]pyrimidin-4(3H)-one]	6.99	25.3	–	–
CNC(=O)c1ccc(-n2c(NCc3nnn(C)c3C(F)(F)F)nc3c(c2=O)C[C@@H](C)N(C(=O)c2ccc(Cl)c(Cl)c2)C3)cc1 [Compound C539]	–	–	5.47	> 50
COc1cccnc1-c1ccc(-n2c(NC(C)C)nc3c(c2=O)CCN(C(=O)c2ccc(Cl)c(Cl)c2)C3)cc1 [Compound C172, 7-(3,4-dichlorobenzoyl)-3-[4-(3-methoxypyridin-2-yl)phenyl]-2-[(propan-2-yl)amino]-5,6,7,8-tetrahydropyrido[3,4-d]pyrimidin-4(3H)-one]	1.66	5.3	–	–
CNC(=O)c1ccc(-n2c(NC(C)C)nc3c(c2=O)C[C@@H](C)N(C(=O)c2ccc(Br)c(Cl)c2F)C3)cc1 [Compound C580]	–	–	0.08	> 50
CNC(=O)c1ccc(-n2c(NC(C)C)nc3c(c2=O)C[C@@H](C)N(C(=O)c2ccc(Cl)cc2C(F)(F)F)C3)cc1 [Compound C648]	–	–	0.22	> 50
CCCn1c(NCc2ccc(OC)cc2)nc2c(c1=O)CCN(C(=O)c1ccc(Cl)c(Cl)c1)C2 [Compound C71, 7-(3,4-dichlorobenzoyl)-2-{[(4-methoxyphenyl)methyl]amino}-3-propyl-5,6,7,8-tetrahydropyrido[3,4-d]pyrimidin-4(3H)-one]	7.04	> 50	–	–
